The source of these data is publication PMC3079562 (Nature chemical biology, 2011).

The experiment deals with T1, NosL (Streptomyces actuosus, UniProt C6FX51).
T1 sequence (C6FX51 1-400): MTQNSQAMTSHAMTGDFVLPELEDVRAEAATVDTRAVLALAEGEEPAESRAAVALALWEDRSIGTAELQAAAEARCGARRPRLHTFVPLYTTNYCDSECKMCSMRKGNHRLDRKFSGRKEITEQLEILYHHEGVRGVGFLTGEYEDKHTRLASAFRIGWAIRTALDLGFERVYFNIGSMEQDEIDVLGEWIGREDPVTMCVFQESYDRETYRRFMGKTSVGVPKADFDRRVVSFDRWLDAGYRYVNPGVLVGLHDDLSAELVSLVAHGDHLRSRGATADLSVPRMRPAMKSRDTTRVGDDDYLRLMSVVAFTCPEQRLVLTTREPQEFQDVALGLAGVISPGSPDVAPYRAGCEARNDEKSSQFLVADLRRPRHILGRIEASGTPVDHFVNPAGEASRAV
Particulars: with L-Trp; otherwise same.

Structures are written as SMILES.

`C[S+](CC[C@H](N)C(=O)O)C[C@H]1O[C@@H](n2cnc3c(N)ncnc32)[C@H](O)[C@@H]1O` (stereo partly shown) [S-AdoMet]: the “HPLC-MS of product 5'-deoxyadenosine” value is “S-AdoMet consumption was independent of L-Trp, but significantly enhanced by adding L-Trp”.
